Here are results for 4 compounds from the NIST ThermoML archive (doi:10.1016/j.fluid.2013.09.028).

Numbers after ± are expanded uncertainties.

The series can be described thus: refractive index (Na D-line) (dimensionless); wn = mass fraction of the nth substance listed. The settings on record: 298.15 K, 101 kPa, Liquid, Standard Abbe refractometry.

What is called refractive index is the speed of light in vacuum divided by its phase velocity in the sample.

Consider `CN1CCCC1=O` [N-methylpyrrolidone] + O, for which the refractive index is, setting by setting: (w1 = 0.0958) 1.3462 ± 0.0005; (w1 = 0.0961) 1.3462 ± 0.0005.

Consider `CC#N` [acetonitrile] + O, for which the refractive index reads like this: (w1 = 0.0473) 1.3425 ± 0.0005; (w1 = 0.0477) 1.3404 ± 0.0005.

For `O=C([O-])[O-].[K+].[K+]` [potassium carbonate] + O, the refractive index is, setting by setting: (w1 = 0.0475) 1.3401 ± 0.0005; (w1 = 0.0968) 1.3378 ± 0.0005.

`O=C([O-])[O-].[Na+].[Na+]` [sodium carbonate] + O: the refractive index is, setting by setting: (w1 = 0.0473) 1.3426 ± 0.0005; (w1 = 0.097) 1.3378 ± 0.0005.
